Source: US10342795B2, “Substituted 4,5,6,7-tetrahydro-pyrazolo[1,5-a]pyrimidine derivatives and 2,3-dihydro-1H-imidazo[1,2-b]pyrazole derivatives as ROS1 inhibitors” (Janssen Pharmaceutica NV, priority 2014, dated 2019)

Experiments:
[1] = biological target: T1, Ros1 enzyme (Homo sapiens, UniProt P08922); assay: Ros1 enzymatic assay; format: biochemical; settings: -log IC50 (M); 20 μM ATP, 120 min at room temperature; read-out: ROS1 pIC50 (converted)
T1 construct: 0.5 μg/ml Ros1 enzyme
Description: Compounds were spotted onto white 384-well Proxiplate plus plates (Perkin Elmer) to which 5 μl of enzyme mix (0.5 μg/ml Ros1 enzyme, 50 mM Tris-HCl pH7.5, 1 mM EGTA, 10 mM MgCl2, 0.01% Tween-20) and 5 μl of substrate mix (6 μg/ml IRS-Tide [American Peptide Company], 20 μM ATP, 13.33 μCi/ml ATP (adenosine 5′-triphosphate) P^33, 50 mM Tris-HCl pH7.5, 1 mM EGTA (ethylene glycol-bis(2-aminoethylether)-N,N,N′,N′-tetraacetic acid), 10 mM MgCl2, 0.01% Tween-20) were added. After incubation for 120 minutes at room temperature, 10 μl of stop reaction buffer (5 mM EDTA, 50 μM ATP, 0.1% BSA (bovine serum albumin), 0.1% Triton X-100, 50 mM Tris-HCl pH7.5, 1 mM EGTA, 10 mM MgCl2, 0.01% Tween-20) containing 2 mg/ml streptavidin coupled polystyrene imaging beads (Amersham Biosciences) was added and incubated for 15 minutes at room temperature. Plates were centrifuged for 3 minutes at 1500 rpm and signals detected in a LEADseeker imaging system (GE).

[2] = test system: Ba/F3 cells containing Ros1 wild-type protein + IL-3; assay: Ba/F3-Ros1 cell proliferation counter-screen, wild-type Ros1 in the presence of murine IL-3; format: cell-based; settings: Mus musculus, BaF3, 24 h; -log IC50 (M); wild-type Ros1, 10 ng/ml murine IL-3 (counter-screen); read-out: BaF3-ROS1 + IL3 pIC50 (converted)
Description: (§1) This assay was carried out with Ba/F3 cells containing three different versions of Ros1: the wild-type protein, protein with a mutation at the gatekeeper residue (L2026M), and protein with a mutation identified in a tumor from a patient that became resistant to crizotinib (Xalkori®) treatment (G2032R). Compounds were solubilized in 100% DMSO (dimethyl sulfoxide) and sprayed into polystyrene, tissue culture treated 384-well plates. A 50 μl volume of cell culture medium (phenol red free RPMI-1640, 10% FBS (fetal bovine serum), 2 mM L-Glutamine) containing 20000 Ba/F3-Ros1 cells was added to each well and the plates were placed in an incubator at 37° C. and 5% CO2. After 24 hours, 10 μl of Alamar Blue solution (0.5 mM K3Fe(CN)6, 0.5 mM K4Fe(CN)6, 0.15 mM Resazurin and 100 mM Phosphate Buffer) was added to the wells, incubated for 4 hours at 37° C. and 5% CO2 before RFU's (Relative Fluorescence Units) (ex. 540 nm., em. 590 nm.) were measured in a fluorescence plate reader.
As a counter-screen the same experiment was performed for the wild-type protein in the presence of 10 ng/ml murine IL-3.

[3] = biological target: Ba/F3 cells containing Ros1 wild-type protein (Homo sapiens, UniProt P08922, cells depend on it, form not given); assay: Ba/F3-Ros1 cell proliferation assay, wild-type Ros1, without IL-3; format: cell-based, murine; settings: -log IC50 (M); wild-type Ros1, no IL-3, 24 h, Alamar Blue
Description: as §1

[4] = test system: HCC78 non-small cell lung cancer cells; assay: HCC78 cell proliferation assay; format: cell-based; settings: Homo sapiens, HCC78, 96 h; -log EC50 (M); 4 days, MTT; read-out: HCC-78 PROL pEC50 (converted)
Description: Approximately 1000 HCC78 non-small cell lung cancer cells in 180 μl of cell culture medium (RPMI-1640, 10% FBS, 2 mM L-Glutamine, 10 mM Hepes, 1 mM sodium pyruvate, 4.5 g/L glucose, 1.5 g/L sodium bicarbonate, 25 μg/ml Gentamycin) were seeded in each well of a 96-well polystyrene, tissue-culture treated plate and incubated at 37° C. and 5% CO2. After 24 hours, compounds were diluted in cell culture medium from which 20 μl was added to the wells containing cells and incubated for 4 days at 37° C. and 5% CO2. A 5 mg/ml solution of the tetrazolium dye MTT was prepared in PBS (phosphate-buffered saline) and 25 μl was added to each well. After 2 hours the medium was removed and replaced by 125 μL of 4/1 DMSO/glycine buffer (0.1M glycine, 0.1M NaCl, pH 10.5) before absorbance was determined at 538 nm.

[5] = biological target: Ba/F3 cells containing Ros1 L2026M (Homo sapiens, UniProt P08922, L2026M, cells depend on it, form not given); assay: Ba/F3-Ros1 cell proliferation assay, L2026M gatekeeper mutant; format: cell-based, murine; settings: -log IC50 (M), no IL-3
Description: as §1

[6] = biological target: Ba/F3 cells containing Ros1 G2032R (Homo sapiens, UniProt P08922, G2032R, cells depend on it, form not given); assay: Ba/F3-Ros1 cell proliferation assay, G2032R mutant; format: cell-based, murine; settings: -log IC50 (M), no IL-3
Description: as §1

Sequence of Ba/F3 cells containing Ros1 L2026M (P08922 whole entry L2026M, form open): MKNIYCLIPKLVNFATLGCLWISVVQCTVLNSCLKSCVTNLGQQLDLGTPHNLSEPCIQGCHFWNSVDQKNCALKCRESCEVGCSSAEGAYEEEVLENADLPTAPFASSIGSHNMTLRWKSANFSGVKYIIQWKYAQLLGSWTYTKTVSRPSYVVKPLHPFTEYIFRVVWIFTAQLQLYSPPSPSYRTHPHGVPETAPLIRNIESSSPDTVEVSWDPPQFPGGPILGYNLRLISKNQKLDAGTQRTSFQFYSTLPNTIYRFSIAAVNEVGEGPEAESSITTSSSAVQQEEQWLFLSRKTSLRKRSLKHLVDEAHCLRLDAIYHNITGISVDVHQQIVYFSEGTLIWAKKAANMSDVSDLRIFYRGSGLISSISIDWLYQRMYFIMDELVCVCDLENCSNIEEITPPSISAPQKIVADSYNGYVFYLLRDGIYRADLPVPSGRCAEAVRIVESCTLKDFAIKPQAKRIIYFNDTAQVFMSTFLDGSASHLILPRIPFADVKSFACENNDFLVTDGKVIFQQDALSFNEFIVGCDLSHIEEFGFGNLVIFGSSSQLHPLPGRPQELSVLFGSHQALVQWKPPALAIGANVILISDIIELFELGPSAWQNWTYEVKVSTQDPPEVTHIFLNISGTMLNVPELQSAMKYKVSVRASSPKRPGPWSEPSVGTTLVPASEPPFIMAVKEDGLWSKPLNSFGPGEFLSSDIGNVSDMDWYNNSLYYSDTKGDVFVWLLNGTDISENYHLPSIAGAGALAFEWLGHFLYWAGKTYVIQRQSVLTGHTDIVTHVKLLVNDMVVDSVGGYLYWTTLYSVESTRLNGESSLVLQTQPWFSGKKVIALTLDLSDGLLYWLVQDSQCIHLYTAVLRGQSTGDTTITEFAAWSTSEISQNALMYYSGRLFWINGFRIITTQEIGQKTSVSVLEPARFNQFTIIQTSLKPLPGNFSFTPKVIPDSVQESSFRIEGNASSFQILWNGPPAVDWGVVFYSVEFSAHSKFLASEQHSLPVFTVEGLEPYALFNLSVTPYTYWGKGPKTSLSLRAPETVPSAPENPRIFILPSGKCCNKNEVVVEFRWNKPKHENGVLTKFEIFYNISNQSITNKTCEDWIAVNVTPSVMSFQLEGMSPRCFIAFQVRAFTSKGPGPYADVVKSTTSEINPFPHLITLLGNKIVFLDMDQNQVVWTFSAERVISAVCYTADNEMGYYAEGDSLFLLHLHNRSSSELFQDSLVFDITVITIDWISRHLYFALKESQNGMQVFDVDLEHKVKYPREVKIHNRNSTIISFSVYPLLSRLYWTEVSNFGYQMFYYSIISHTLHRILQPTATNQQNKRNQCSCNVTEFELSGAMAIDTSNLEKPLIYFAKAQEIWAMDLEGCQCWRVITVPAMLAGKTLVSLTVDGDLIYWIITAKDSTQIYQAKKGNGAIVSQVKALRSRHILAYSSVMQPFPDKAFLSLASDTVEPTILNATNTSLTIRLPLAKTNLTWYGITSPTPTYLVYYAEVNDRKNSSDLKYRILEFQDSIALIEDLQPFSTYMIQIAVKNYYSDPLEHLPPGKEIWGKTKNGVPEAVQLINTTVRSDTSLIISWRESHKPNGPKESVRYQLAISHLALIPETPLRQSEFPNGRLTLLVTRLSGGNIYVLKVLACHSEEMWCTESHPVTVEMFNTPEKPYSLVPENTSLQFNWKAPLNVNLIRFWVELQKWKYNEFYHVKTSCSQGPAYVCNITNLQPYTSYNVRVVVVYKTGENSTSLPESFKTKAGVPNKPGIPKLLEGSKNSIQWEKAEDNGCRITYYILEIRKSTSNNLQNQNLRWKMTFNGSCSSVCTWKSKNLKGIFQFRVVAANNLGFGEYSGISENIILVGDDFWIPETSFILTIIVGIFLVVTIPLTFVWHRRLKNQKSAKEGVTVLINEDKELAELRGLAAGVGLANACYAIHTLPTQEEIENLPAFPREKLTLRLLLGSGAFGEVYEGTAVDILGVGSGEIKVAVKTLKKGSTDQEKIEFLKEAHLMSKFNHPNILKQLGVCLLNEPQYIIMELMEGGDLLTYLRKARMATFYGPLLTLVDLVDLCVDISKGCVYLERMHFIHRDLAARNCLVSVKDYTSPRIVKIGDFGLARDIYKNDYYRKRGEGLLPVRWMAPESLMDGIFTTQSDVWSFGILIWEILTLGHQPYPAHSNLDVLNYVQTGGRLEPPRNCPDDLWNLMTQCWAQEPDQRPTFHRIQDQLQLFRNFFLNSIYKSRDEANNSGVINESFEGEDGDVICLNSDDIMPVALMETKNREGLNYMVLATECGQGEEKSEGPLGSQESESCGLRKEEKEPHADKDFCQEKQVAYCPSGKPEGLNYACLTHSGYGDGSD
Sequence of Ba/F3 cells containing Ros1 wild-type protein (P08922 whole entry, change not shown): as the sequence (P08922 whole entry L2026M, form open) above, with M2026L counted along it
T1 sequence (P08922 28-2347): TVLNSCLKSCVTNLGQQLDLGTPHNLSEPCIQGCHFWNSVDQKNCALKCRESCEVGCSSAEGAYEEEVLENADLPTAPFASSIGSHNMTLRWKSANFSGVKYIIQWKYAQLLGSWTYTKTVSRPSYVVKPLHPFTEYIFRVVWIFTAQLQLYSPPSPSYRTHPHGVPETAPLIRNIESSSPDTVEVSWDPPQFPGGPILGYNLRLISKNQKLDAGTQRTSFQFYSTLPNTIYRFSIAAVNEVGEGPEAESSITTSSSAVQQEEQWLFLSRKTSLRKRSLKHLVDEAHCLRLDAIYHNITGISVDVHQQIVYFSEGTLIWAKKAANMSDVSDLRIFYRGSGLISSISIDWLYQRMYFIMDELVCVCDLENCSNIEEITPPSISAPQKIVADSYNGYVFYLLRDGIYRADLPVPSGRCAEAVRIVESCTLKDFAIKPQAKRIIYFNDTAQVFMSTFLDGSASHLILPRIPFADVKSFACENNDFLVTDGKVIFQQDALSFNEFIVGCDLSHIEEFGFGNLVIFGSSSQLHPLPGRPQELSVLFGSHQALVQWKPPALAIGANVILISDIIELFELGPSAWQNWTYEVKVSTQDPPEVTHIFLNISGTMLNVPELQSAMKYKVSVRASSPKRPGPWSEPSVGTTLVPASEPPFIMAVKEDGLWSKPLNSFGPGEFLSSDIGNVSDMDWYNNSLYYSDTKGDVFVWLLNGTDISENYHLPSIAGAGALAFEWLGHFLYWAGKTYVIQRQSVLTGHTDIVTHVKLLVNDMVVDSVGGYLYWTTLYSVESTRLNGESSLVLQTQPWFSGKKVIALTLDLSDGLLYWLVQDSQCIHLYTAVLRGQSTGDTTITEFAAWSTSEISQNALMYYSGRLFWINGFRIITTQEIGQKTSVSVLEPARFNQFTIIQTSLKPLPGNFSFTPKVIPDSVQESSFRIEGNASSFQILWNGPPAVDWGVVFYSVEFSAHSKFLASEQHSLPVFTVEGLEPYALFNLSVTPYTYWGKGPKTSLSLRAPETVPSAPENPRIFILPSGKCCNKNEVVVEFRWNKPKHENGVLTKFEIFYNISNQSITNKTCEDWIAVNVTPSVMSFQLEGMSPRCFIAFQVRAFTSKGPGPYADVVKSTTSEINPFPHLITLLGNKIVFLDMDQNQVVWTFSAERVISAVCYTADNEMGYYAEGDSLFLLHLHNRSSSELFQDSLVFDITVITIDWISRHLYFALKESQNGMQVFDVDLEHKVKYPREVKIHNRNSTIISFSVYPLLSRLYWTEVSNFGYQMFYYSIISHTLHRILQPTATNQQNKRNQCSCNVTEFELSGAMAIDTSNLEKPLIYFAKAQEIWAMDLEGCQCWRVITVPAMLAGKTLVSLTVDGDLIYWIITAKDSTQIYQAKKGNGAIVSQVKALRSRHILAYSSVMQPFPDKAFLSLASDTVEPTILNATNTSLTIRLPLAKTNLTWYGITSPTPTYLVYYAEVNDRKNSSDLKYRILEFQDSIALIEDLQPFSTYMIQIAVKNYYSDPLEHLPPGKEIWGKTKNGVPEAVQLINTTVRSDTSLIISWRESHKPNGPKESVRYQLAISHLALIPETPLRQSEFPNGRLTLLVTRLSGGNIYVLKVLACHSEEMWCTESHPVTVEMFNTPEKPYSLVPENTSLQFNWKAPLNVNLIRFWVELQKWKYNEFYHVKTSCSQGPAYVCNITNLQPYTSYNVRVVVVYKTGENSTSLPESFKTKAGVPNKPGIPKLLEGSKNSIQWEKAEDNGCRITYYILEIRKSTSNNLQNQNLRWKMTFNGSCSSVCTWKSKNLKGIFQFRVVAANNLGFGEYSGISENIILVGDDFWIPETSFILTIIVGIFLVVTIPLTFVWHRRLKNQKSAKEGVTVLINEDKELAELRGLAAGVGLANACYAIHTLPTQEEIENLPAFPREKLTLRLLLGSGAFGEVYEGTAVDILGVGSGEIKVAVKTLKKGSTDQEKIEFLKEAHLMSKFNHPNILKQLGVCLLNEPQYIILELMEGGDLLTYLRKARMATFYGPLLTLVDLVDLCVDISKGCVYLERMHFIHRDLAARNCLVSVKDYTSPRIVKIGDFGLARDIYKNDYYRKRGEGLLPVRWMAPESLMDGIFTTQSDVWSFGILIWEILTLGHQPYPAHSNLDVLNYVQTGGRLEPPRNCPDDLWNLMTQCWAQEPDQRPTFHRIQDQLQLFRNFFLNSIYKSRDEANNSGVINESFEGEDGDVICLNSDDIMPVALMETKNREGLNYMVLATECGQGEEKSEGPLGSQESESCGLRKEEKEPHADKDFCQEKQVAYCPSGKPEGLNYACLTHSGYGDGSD
Sequence of Ba/F3 cells containing Ros1 G2032R (P08922 whole entry G2032R, form open): as the sequence (P08922 whole entry L2026M, form open) above, with M2026L, G2032R counted along it

melting point [°C]	IC50 [1] [M]	BaF3-ROS1 − IL3 pIC50 [3]	EC50 [4] [M]	Ba/F3 Ros1 L2026M (-IL-3) pIC50 [5]	Ba/3 Ros1 G2032R (-IL-3) pIC50 [6]	Structure (SMILES)	CC50 [2] [M]
187	2.51e-08	7.2				CC(C)c1ccc(COc2ccc(-c3c(-c4ccncc4)nn4cccnc34)c(F)c2)cc1 [Co. B]	> 1e-05
	1e-06	<5				COC(=O)c1ccn2nc(-c3ccncc3)c(-c3ccc(OCc4ccc(C(C)C)cc4)cc3)c2n1 [Co. G]	> 1e-05
	7.94e-08	6.8				CC(C)c1ccc(COc2ccc(-c3c(-c4ccncc4)nn4cccnc34)cc2)cc1 [Co. A]	> 1e-05
	2.51e-07	7.0	7.94e-07	6.8		CC(C)c1ccc(COc2ccc(-c3c(-c4ccncc4)nn4c3NC(CO)C4)cc2)cc1 (centres unmarked) [Co. 11]	2.51e-06
160	5.01e-07	6.4				CC(C)c1ccc(COc2ccc(-c3c(-c4ccncc4)nn4c3N(C)C(=O)CC4)cc2)cc1 [Co. 22]	> 1e-05
199	6.31e-08	7.5	7.94e-08	7.6		CC(C)c1ccc(COc2ccc(-c3c(-c4ccncc4)nn4c3NC(CO)CC4)cc2)cc1 (centres unmarked) [Co. 24]	7.94e-06
207	5.01e-07	6.8	2e-06	6.8		CNC(=O)c1ccnc2c(-c3ccc(OCc4ccc(C(C)C)cc4)cc3)c(-c3ccncc3)nn12 [Co. J]	> 1e-05
149	1.58e-06	6.3	2e-06	7.5		CC(C)c1ccc(COc2ccc(-c3c(-c4ccncc4)nn4c3NCC4)cc2)c(F)c1F [Co. 8]	3.98e-06
	3.16e-08	7.5	2e-07	7.5		Cc1ccn2nc(-c3ccncc3)c(-c3ccc(OCc4ccc(C(C)C)cc4)cc3F)c2n1 [Co. C]	> 1e-05
140	5.01e-07	5.8				CCOC(=O)c1ccnc2c(-c3ccc(OCc4ccc(C(C)C)cc4)cc3)c(-c3ccncc3)nn12 [Co. H]	> 1e-05
153	2.51e-08	~8.03	1.26e-08	7.7		CC(C)c1ccc(COc2cc(F)c(-c3c(-c4ccncc4)nn4c3NCC4)cc2F)cc1 [Co. 2]	> 1e-05
	5.01e-07	6.3		5.5		CNCC1CCNc2c(-c3ccc(OCc4ccc(C(C)C)cc4)cc3)c(-c3ccncc3)nn21 (centres unmarked) [Co. 27]	~6.31e-06
243	6.31e-08	7.1	5.01e-07	6.9		CC(C)c1ccc(COc2ccc(-c3c(-c4ccncc4)nn4ccc(=O)[nH]c34)cc2)cc1 [Co. E]	> 1e-05
191	6.31e-08	7.2		6.6		CC(C)c1ccc(COc2ccc(-c3c(-c4ccncc4)nn4c3NCC4)c(C#N)c2)cc1 [Co. 3]	> 1e-05
141	~1.26e-07	7.1	7.94e-07	<5	6.7	CC(C)c1ccc(COc2ccc(-c3c(-c4ccncc4)nn4c3NCC4)c(F)c2)cc1 [Co. 5]	> 1e-05
147	6.31e-08	7.4		6.9		CC(C)c1ccc(COc2ccc(-c3c(-c4ccncc4)nn4c3N(CCO)CCC4)cc2)cc1 [Co. 21]	> 1e-05
	2.51e-07	6.8	6.31e-07	<5		CC(C)c1ccc(COc2ccc(-c3c(-c4ccncn4)nn4c3NCC4)c(F)c2)cc1 [Co. 15]	> 1e-05
159	1e-07	7.1	6.31e-07	7.1		CC(C)c1ccc(COc2ccc(-c3c(-c4ccncc4)nn4c3NCC4)cn2)cc1 [Co. 4]	1.26e-06
	3.16e-08	7.9	1e-07	7.8		CC(C)c1ccc(COc2ccc(-c3c(-c4ccncc4)nn4c3NC(CO)CC4)c(F)c2)cc1 (centres unmarked) [Co. 23]	> 1e-05
109	3.98e-07	6.5	1e-06	6.6		CC(C)c1ccc(COc2ccc(-c3c(-c4ccncn4)nn4c3NCC4)cc2)cc1 [Co. 14]	~7.41e-06
205	3.16e-07	6.8				CC(C)c1ccc(COc2ccc(-c3c(-c4ccncc4)nn4c3N(CCO)C(=O)CC4)cc2)cc1 [Co. 20]	> 1e-05
120	1e-07	6.7	7.94e-07	6.4		CC(C)c1ccc(COc2ccc(-c3c(-c4ccncc4)nn4c3N(C)CCC4)cc2)cc1 [Co. 19]	> 1e-05
155	1.26e-07	7.0	7.94e-07	6.8		CC(C)c1ccc(COc2ccc(-c3c(-c4ccncc4)nn4c3NCCC4CO)cc2)cc1 (centres unmarked) [Co. 25]	> 1e-05
	6.31e-08	7.3	5.01e-07	5.5		CC(C)c1ccc(COc2ccc(-c3c(-c4ccncc4)nn4c3NCC4)cc2)cc1CC(O)CO (centres unmarked) [Co. 9]	> 1e-05
158	2e-07	6.7		6.4		CC(C)c1ccc(COc2ccc(-c3c(-c4ccncc4)nn4c3NCC4)cc2)cc1C#N [Co. 6]	> 1e-05
	5.01e-07	6.3	1.58e-06	6		CC(C)c1ccc(COc2ccc(-c3c(-c4ccncc4)nn4c3N(CCCN)CC4)cc2)cc1 [Co. 12]	~4.47e-06
188	2e-08	7.6	3.98e-07	7.8		CC(C)c1ccc(COc2ccc(-c3c(-c4ccncc4)nn4c3NCCC4)c(F)c2)cc1 [Co. 18]	> 1e-05
	3.16e-08	7.1	1.58e-07	6.7		CNC(=O)C1CCNc2c(-c3ccc(OCc4ccc(C(C)C)cc4)cc3)c(-c3ccncc3)nn21 (centres unmarked) [Co. 26]	> 1e-05
